According to patent US11732264B2, “Compositions and methods for treating COVID-19” (Vast Sea Biotechnology, Inc., priority 2020, dated 2023):
d = 2'-deoxy (DNA); r = 2'-OH (RNA)

Legend:
Assay type in all cases: cell-based
[1] = system: human primary lung small airway epithelial cells (HSAEC); assay: FACS detection of intercellular delivery of oligos in HSAEC; conditions: for cells with intercellular signals of the oligos, Arginine compared with lipofectamine (FACS): 10 ul/well Arginine vs lipofectamine
[2] = system: Human Primary Nasal Epithelial Cells; assay: Fluorescence microscopy of oligo entry into HNEpC; conditions: 24-48 hours, fluorescent filter 10x/20x, delivery per FIG. 35
[3] = system: primary human lung small airway epithelial cells; assay: Fluorescence microscopy of oligo entry into HSAEC; conditions: 24-48 hours, fluorescent filter 10x/20x, lipofectamine, poly-arginine or no reagent per FIG. 1
[4] = system: primary human lung bronchial/tracheal epithelial cells; assay: Fluorescence microscopy of oligo entry into HBTEC; conditions: 24-48 hours, fluorescent filter 10x/20x, delivery per FIG. 20

TGTTAATTGGAACGCCTTGTC (FANA modified, pattern not given here, FITC label) [VS_ASO_1-FANA-FITC]
intensities of fluorescent signals in cells (FACS) vs no-treatment control ([1]; without lipofectamine or Arginine reagents): significantly stronger | entry into cells, microscopic analysis [2]: can enter epithelial cells | entry into cells, microscopic analysis [3]: entry | entry into cells, microscopic analysis [4]: entry

TGTTAATTGGAACGCCTTGTC (Cy3 label, position not given here) [VS_ASO_2-Cy3]
cells with intercellular signals of the oligos, Arginine compared with lipofectamine (FACS) [1]: more cells with intercellular signals of the oligos | intensities of fluorescent signals in cells (FACS) vs no-treatment control ([1]; Arginine only (10 ul/well)): significantly higher | intensities of fluorescent signals in cells (FACS) vs no-treatment control ([1]; with lipofectamine): significantly higher

VS_DsiRNA-Cy5: DsiRNA SEQ ID NOs: 23 & 24, target N-protein, Cy5 labeled (chain 1 AAACUAAAAUGUCUGAUAAUGGACC; chain 2 GGUCCAUUAUCAGACAUUUUAGUUUGU; chain 1: sugars from the 5' end r23 d2, backbone not given here; chain 2: chemistry not given here; Cy5 label)
cells with intercellular signals of the oligos, Arginine compared with lipofectamine (FACS) [1]: more cells with intercellular signals of the oligos | intensities of fluorescent signals in cells (FACS) vs no-treatment control ([1]; Arginine only (10 ul/well)): significantly higher | intensities of fluorescent signals in cells (FACS) vs no-treatment control ([1]; with lipofectamine): significantly higher | entry into cells, microscopic analysis [2]: can enter epithelial cells | entry into cells, microscopic analysis [3]: entry | entry into cells, microscopic analysis [4]: entry
